Series [1] concerns cisplatin-resistant cell line A549R. Briefly: MTT cytotoxicity assay, A549R. Format: cell-based, human. To be noted: for RF (resistant factor): RF=IC50(A549R)/IC50(A549); for IC50: read-out: IC50 A549R (48 h). (Tetrazolium assays rely on reduction of a dye to a coloured formazan, in cell work by metabolically active cells.)
The test system of a further series is human lung cancer (A549). Kind of series: MTT cytotoxicity assay, A549. Format: cell-based. To be noted: read-out: IC50 A549 (48 h).
A further series deals with CT-26 homograft tumors. Kind of series: In vivo antitumor assay, CT-26 homograft. On the set-up: species or system BALB/c mice. To be noted: days 6, 9, 12, 14, day 15, saline 1586.
In series [2] the test system is human ovarian cancer (SKOV-3). Kind of series: MTT cytotoxicity assay, SKOV-3. Format: cell-based.
For series [3], the system named is murine colon cancer (CT-26). Kind of series: MTT cytotoxicity assay, CT-26. To be noted: read-out: IC50 CT-26 (48 h). The series is classed as cell-based.
Series [4] deals with human normal liver cell line LO-2. Kind of series: MTT cytotoxicity assay, normal cell LO-2. Format: cell-based. As to conditions: for IC50: read-out: IC50 LO-2 (48 h).
The target in a further series is T1, rhCOX-2 (Homo sapiens, UniProt P35354).
T1 sequence (P35354 18-604): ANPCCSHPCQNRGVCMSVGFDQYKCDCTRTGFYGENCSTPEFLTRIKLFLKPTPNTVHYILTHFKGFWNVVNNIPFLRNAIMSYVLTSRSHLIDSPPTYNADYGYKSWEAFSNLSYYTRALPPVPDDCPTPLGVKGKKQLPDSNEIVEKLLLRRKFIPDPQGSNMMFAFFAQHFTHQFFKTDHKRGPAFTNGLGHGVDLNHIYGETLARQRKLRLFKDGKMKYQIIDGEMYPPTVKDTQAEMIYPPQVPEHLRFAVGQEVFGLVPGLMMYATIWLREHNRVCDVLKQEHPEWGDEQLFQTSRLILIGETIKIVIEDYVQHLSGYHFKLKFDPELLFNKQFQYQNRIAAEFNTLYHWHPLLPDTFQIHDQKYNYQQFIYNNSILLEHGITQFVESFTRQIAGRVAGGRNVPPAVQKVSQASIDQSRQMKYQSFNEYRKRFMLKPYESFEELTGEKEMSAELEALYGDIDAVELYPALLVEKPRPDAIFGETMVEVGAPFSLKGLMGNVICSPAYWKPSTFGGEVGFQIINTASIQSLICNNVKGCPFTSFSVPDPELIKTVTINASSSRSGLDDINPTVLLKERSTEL
Briefly: biochemical. As to conditions: read-out: COX-2 inhibition.

The next series relates to iNOS. Briefly: Immunohistochemical detection of iNOS in tumor tissues. To be noted: 4 mg Pt/kg (1-NPs, oxaliplatin i.v.), immunohistochemistry. The series is classed as in vivo, BALB/c mice.
For another series, the system named is MMP-9. Kind of series: Immunohistochemical detection of MMP-9 in tumor tissues. As to conditions: 4 mg Pt/kg (1-NPs, oxaliplatin i.v.; 1 i.p.), immunohistochemistry; saline 16.3±1.9. Format: in vivo, BALB/c mice.
Another series is described as follows: Toxicity in vivo. Set-up: species or system BALB/c mice. To be noted: 4 mg Pt/kg (1-NPs, oxaliplatin i.v.; 1 i.p.).
Series [5] in a line: Serum AST, ALT, BUN and CRE detection. The series is classed as in vivo, BALB/c mice. To be noted: 4 mg Pt/kg (1-NPs, oxaliplatin i.v.; 1 i.p.), vs saline.
The mark [6] stands for this setting: read-out: IC50 SKOV-3 (48 h), 48 h incubation.
Where [7] appears, read: read-out: IC50 SKOV-3 (72 h), 72 h incubation.
Where [8] appears, read: MTT, 48 h incubation, normal liver cell.

As usually defined, the IC50 is the point on the concentration scale where inhibition reaches its midpoint. Broadly, the inhibition is the share of the control response that was lost under treatment.

Where two headings read alike, the source gives them in different places. Bounds are passed on as bounds.

For `N.N.[Cl][Pt][Cl]` [cisplatin], the “RF (resistant factor)” value in [1] is on record as 2.57; in [1] (listed as CDDP) it was 2.6. The concentration for half-maximal inhibition (IC50) in [1] (MTT, 48 h incubation) was determined as 7.1 ± 1.3 µM; in the series with human lung cancer (A549) (MTT, 48 h incubation) it was 2.8 ± 0.6 µM; in series [2] (setting [6]), 1.9 ± 0.4 µM; in series [2] (setting [7]), 1.2 ± 0.3 µM; in series [3] (MTT, 48 h incubation), 1.2 ± 0.3 µM; in [4] (setting [8]), 3.4 ± 1.2 µM. The tumor volume in the series with CT-26 homograft tumors (2 mg Pt/kg (2-NPs, cisplatin i.v.; 2 i.p.)) was found to be 399 mm^3.
As to `COc1ccc2cc([C@H](C)C(=O)O)ccc2c1` [naproxen], the concentration for half-maximal inhibition (IC50) was more than 100 µM in series [1] (Homo sapiens, 48 h); more than 100 µM in the series with human lung cancer (A549) (Homo sapiens, A549, 48 h); more than 100 µM in series [3] (Mus musculus, CT26, 48 h); more than 100 µM in [4] (Homo sapiens, 48 h). Further, the inhibition at 40 µM on rhCOX-2 came out at 74%.
As to `O=C1[O][Pt]2([NH][C@@H]3CCCC[C@H]3[NH]2)[O]C1=O` [oxaliplatin], in [1], the “RF (resistant factor)” value amounted to 0.4. Also, the half-inhibitory concentration (IC50) in [1] (MTT, 48 h incubation) turned out to be 2.4 ± 0.6 µM; in the series on human lung cancer (A549) (MTT, 48 h incubation) it was 6.7 ± 1.8 µM; in series [2] (setting [6]) it was 5.9 ± 1.3 µM; in series [2] (setting [7]), 7.5 ± 1.8 µM; in series [3] (MTT, 48 h incubation), 4.1 ± 0.7 µM; in series [4] (setting [8]), 4.8 ± 0.7 µM. Besides, in the series on iNOS, the “expression of iNOS in tumor tissues” value is “significantly upregulates iNOS”. The “expression of MMP-9, mean optical density” value with MMP-9 came out at 6.5±0.5%. In the series on CT-26 homograft tumors (4 mg Pt/kg (1-NPs, oxaliplatin i.v.; 1 i.p.)), this molecule returned a tumor volume of 477 mm^3. In addition, in “Toxicity in vivo”, the “signs of toxicity during treatment” value is “anorexia and dyskinesia”. Besides, the “H&E histology of heart, liver, spleen, lung and kidney” value in the series “Toxicity in vivo” (vs saline) is given as “no appreciable histological differences”. Further, the spleen weight index entry in the series “Toxicity in vivo” (vs saline) is given as “remarkable suppressions of spleen”. The “ALT and AST levels in serum” value in series [5] is “significant enhanced ALT and AST levels”. The “SI (selectivity index)” value in [4] (SI = IC50(LO-2)/Average IC50) is recorded as 1.0.

Source of the values: paper PMC8375242 (International Journal of Nanomedicine, 2021).
